Assays:
[1] = system: J-TEC Human Reconstituted Epidermis Model (stratum corneum sheet); assay: Change in stratum corneum sheet thickness on wetting and drying (Example 6)
Experimental: (§1) The thickness of a J-TEC Human Reconstituted Epidermis Model (stratum corneum sheet) before the experiment was measured with a caliper (Caliper No. 227-201 by Mitsutoyo Corp.) (one location each) (A). The stratum corneum sheet was further wetted for 30 minutes in a 10% glycerin aqueous solution, an aqueous solution of liquid paraffin (10%), glycerin (10%), POE(60) hydrogenated castor oil (10%), carboxyvinyl polymer (product name: CARBOPOL 981, Lubrizol Advanced Materials, Inc.) (0.2%) and KOH (0.1%) (liquid paraffin+glycerin+thickener aqueous solution), and in 100% ethanol, and immediately upon completion of wetting, the thickness of the stratum corneum sheet was measured with a caliper in the same manner (B).
(§2) It was further dried for 18 hours under conditions of 34° C., 60% humidity and the stratum corneum sheet was measured (C). Using theses results, the thickness change rate (%) of the stratum corneum sheet was measured based on the following formula 1: Thickness change rate (%)=(B−A)×100/A−(C−B)×100/C

[2] = system: J-TEC Human Reconstituted Epidermis Model (stratum corneum sheet); assay: Visual examination of stratum corneum sheet transparency after wetting and drying (Example 6); conditions: visually examined after wetting 30 minutes and drying 18 hours at 34° C., 60% humidity
Experimental: as §1, §2

[3] = system: freeze-dried J-TEC Human Reconstituted Epidermis model (stratum corneum sheet); assay: Transparency and transmittance of freeze-dried stratum corneum sheet after wetting and drying (FIG. 7); conditions: wetted 30 minutes, dried 18 hours at 34° C., 60% humidity
Experimental: The freeze-dried stratum corneum sheet was wetted for 30 minutes in a 10% glycerin aqueous solution, in an aqueous solution of liquid paraffin (10%), glycerin (10%), POE(60) hydrogenated castor oil (10%), carboxyvinyl polymer (product name: CARBOPOL 981 by Lubrizol Advanced Materials, Inc.) (0.2%) and KOH (0.1%) (liquid paraffin+glycerin+thickener aqueous solution), and in 100% ethanol, and after removing the liquid, drying was performed for 18 hours in an atmosphere at 34° C., 60% humidity, and the sheet was photographed (FIG. 7). […] Since higher transparency of the stratum corneum can be considered a more excellent skin condition, the state of improvement in skin can be evaluated based on the thickness change in the stratum corneum cells or cell layer from moistening in a liquid until drying.

SMILES: CCO [100% Ethanol, ethanol]
- Thickness change rate (%) ([1]; (B−A)×100/A−(C−B)×100/C, wetted 30 minutes, dried 18 hours at 34° C., 60% humidity, caliper): 3.9%
- change in thickness of stratum corneum sheet when moistened (FIG. 6) ([1]; after wetting with the liquid): no change in thickness
- Transparency [2]: Poor
- transparency of freeze-dried stratum corneum sheet moistened and then dried (FIG. 7) [3]: low
- stratum corneum transmittance of freeze-dried sheet moistened and then dried (FIG. 7) ([3]; HR100 spectrophotometer): low

From US9714936B2, “Method for evaluating cosmetic” (SHISEIDO COMPANY, LTD., priority 2011, dated 2017)
